Data as given in patent US11952584B2, “Functional peptides having antimicrobial activity against phytopathogenic microorganisms” (TOYOTA JIDOSHA KABUSHIKI KAISHA, priority 2019, dated 2024).
“And” between values parts separate entries of the source, which are not always exact repeats. Equal values may be shown once. “Also recorded” adds a separate entry of the source. Read-outs that look alike come from different tables or passages of the source. Ends that are not written are not given here.

B1: mdfimlaaaivkesfiflligllaaILLSLEIFERKFSRSVWYYGFPAFSERTRKFWRIWKGK TS (peptide, listed as Solanum lycopersicum)
chain: MDFIMLAAAIVKESFIFLLIGLLAAILLSLEIFERKFSRSVWYYGFPAFSERTRKFWRIWKGKTS
notes: peptide of 65 amino acid residues from tomato xylem sap

Tests used:
[1] = tested on: Pseudomonas syringae pv. tomato
[2] = tested on: Xanthomonas oryzae pv. oryzae; settings: for Inhibitory rate Xanthomonas oryzae pv. oryzae / OD600 Xanthomonas oryzae pv. oryzae: peptide 100 μM, 28° C. a whole day and night; for Inhibitory rate Xanthomonas oryzae pv. oryzae: relative to water; for OD600 Xanthomonas oryzae pv. oryzae: water control 2.1
Botrytis cinerea [3] = test: Botrytis cinerea leaf inoculation test (tomato leaf); assay type: in vivo; settings: for inhibitory effects against Botrytis cinerea (in words): tomato leaf inoculation test, not shown in the figures
Protocol: In the present example, a suspension comprising Botrytis cinerea and a peptide to be tested was dropped on a plant leaf, and lesions were then observed by visual inspection to evaluate the antimicrobial activity of the tested peptide. First, the pores of Botrytis cinerea were suspended in a potato dextrose broth (PDB) to result in a spore concentration of 5×10^5 spores/ml, so as to prepare a PDB suspension spore solution. Subsequently, a peptide to be tested (TsORF18-2) was added to the PDB suspension spore solution, so that the final concentration of the peptide to be tested became 0 μM, 1 μM, 10 μM or 100 μM. It is to be noted that, as peptides to be tested, TsORF18 (full length) and TsORF18-40 a.a. were also used in the same manner as that of TsORF18-2. TsORF18 (full length) was dissolved in DMSO and was then used. On the other hand, TsORF18-2 and TsORF18-40 a.a were each dissolved in Milli-Q water and were then used. Thereafter, 10 μl each of the PDB suspension spore solution containing the peptide to be tested was dropped on the front side and the back side of the leaf of tomato (variety name: “Ponte Rosa”). In this condition, incubation was carried out at 25° C. for 2 days. Thereafter, the front and back sides of the leaf were observed by visual inspection.

Pyricularia oryzae = assay type: cell-based; settings: for Plate antimicrobial activity test Pyricularia oryzae (level): 25° C., 1 day or 2 days
[4] = tested on: Colletotrichum orbiculare; assay type: cell-based; settings: for Plate antimicrobial activity test Collectotrichum orbiculare (level): 25° C., 1 day or 2 days
Fusarium oxysporum = assay type: cell-based
Ralstonia solanacearum = settings: peptide 100 μM, 28° C. a whole day and night; for Inhibitory rate Ralstonia solanacearum: relative to water; for OD600 Ralstonia solanacearum: water control 2.6
[5] = tested on: Colletotrichum destructivum; assay type: cell-based; settings: for Plate antimicrobial activity test Colletotrichum destructivum (level): 25° C., 1 day or 2 days
[6] = tested on: Colletotrichum destructivum; test: Colletotrichum destructivum leaf inoculation test (Chinese cabbage leaf); assay type: in vivo; settings: 25° C.; for lesion of Colletotrichum destructivum (in words): 4 days (FIG. 3); for Leaf inoculation test Chinese cabbage/Colletotrichum destructivum: 4 days, lesions by visual inspection
Text: In the present example, a suspension comprising Colletotrichum destructivum and a peptide to be tested was dropped on a plant leaf, and lesions were then observed by visual inspection to evaluate the antimicrobial activity of the tested peptide. First, the pores of Colletotrichum destructivum were suspended in water to result in a spore concentration of 5×10^5 spores/ml, so as to prepare a water suspension of spores. Subsequently, peptides to be tested (TsORF18 (full length), TsORF18-40 a.a., and TsORF18-2) were each added to the water suspension of spores, so that the final concentration of the peptides to be tested became 0 μM, 1 μM, 10 μM or 100 μM. Thereafter, 10 μl each of the water suspension of spores containing the peptide to be tested was dropped on the front side and the back side of the leaf of Chinese cabbage (variety name: “Kigokoro 85”). In this condition, incubation was carried out at 25° C. for 4 days. Thereafter, the front and back sides of the leaf were observed by visual inspection.

[7] = tested on: Erwinia carotovora subsp. carotovora
Botrytis cinerea [8] = assay type: cell-based; settings: for Plate antimicrobial activity test Botrytis cinerea (level): 25° C., 1 day or 2 days
[9] = plate test, microscopic observation (FIG. 1), concentration not given

Row | Molecule | OD600 Pseudomonas syringae pv. tomato [1] | Inhibitory rate Pseudomonas syringae pv. tomato ([1]; 100 μM) | Inhibitory rate Xanthomonas oryzae pv. oryzae [2] | OD600 Xanthomonas oryzae pv. oryzae [2] | Plate antimicrobial activity test Fusarium oxysporum (level) (Fusarium oxysporum) | Inhibitory rate Ralstonia solanacearum (Ralstonia solanacearum) | OD600 Ralstonia solanacearum (Ralstonia solanacearum) | Plate antimicrobial activity test Colletotrichum destructivum (level) ([5]; peptide 1 μM) | Plate antimicrobial activity test Colletotrichum destructivum (level) ([5]; peptide 10 μM) | Plate antimicrobial activity test Colletotrichum destructivum (level) ([5]; peptide 100 μM) | Leaf inoculation test Chinese cabbage/Colletotrichum destructivum ([6]; peptide 1 μM) | Leaf inoculation test Chinese cabbage/Colletotrichum destructivum ([6]; peptide 10 μM) | Leaf inoculation test Chinese cabbage/Colletotrichum destructivum ([6]; peptide 100 μM) | OD600 Erwinia carotovora subsp. cartovora [7] | Inhibitory rate Erwinia carotovora subsp. cartovora ([7]; 100 μM) | Plate antimicrobial activity test Botrytis cinerea (level) (Botrytis cinerea [8]; peptide 1 μM) | Plate antimicrobial activity test Botrytis cinerea (level) (Botrytis cinerea [8]; peptide 10 μM) | Plate antimicrobial activity test Botrytis cinerea (level) (Botrytis cinerea [8]; peptide 100 μM) | inhibitory effects against Botrytis cinerea (in words) (Botrytis cinerea [3]) | also measured
1 | YYGFPAFSERTRKFWRIWKGKT [TsORF18-2] | 1.9 | 25.3% | 90.1% | 0.2 | 3 and 1 and 0 | 13.8% | 2.2 | 0 | 2 | 3 | ∘ | ∘ | ∘ | 2.6 | −39.2% | 1 | 3 | 3 | – | inhibition of growth of Pseudomonas syringae pv. tomato (in words) ([1]; 100 μM): could inhibit the growth; inhibition of growth of Xanthomonas oryzae pv. oryzae (in words) ([2]; summary of Table 4, 100 μM): could inhibit the growth; lesion of Botrytis cinerea (in words) (Botrytis cinerea [3]; 100 μM, tomato leaf, 25° C., 2 days (FIG. 2)): not observed; Leaf inoculation test Tomato/Botrytis cinerea (Botrytis cinerea [3]; peptide 100 μM, tomato leaf, 25° C., 2 days, lesions by visual inspection): ∘; Plate antimicrobial activity test Pyricularia oryzae (level) (Pyricularia oryzae; peptide 1 μM): 0; Plate antimicrobial activity test Pyricularia oryzae (level) (Pyricularia oryzae; peptide 10 μM): 0; Plate antimicrobial activity test Pyricularia oryzae (level) (Pyricularia oryzae; peptide 100 μM): 3; inhibition of germination of Pyricularia oryzae (in words) (Pyricularia oryzae; [9]): completely inhibited; also recorded: could inhibit germination; Plate antimicrobial activity test Collectotrichum orbiculare (level) ([4]; peptide 1 μM): 0; Plate antimicrobial activity test Collectotrichum orbiculare (level) ([4]; peptide 10 μM): 1; Plate antimicrobial activity test Collectotrichum orbiculare (level) ([4]; peptide 100 μM): 3; inhibition of germination of Colletotrichum orbiculare (in words) [4, 9]: completely inhibited; also recorded: could inhibit germination; inhibition of germination of Fusarium oxysporum (in words) (Fusarium oxysporum): completely inhibited; also recorded: could inhibit germination; inhibition of germination of Colletotrichum destructivum (in words) [5, 9]: completely inhibited; also recorded: could inhibit germination; lesion of Colletotrichum destructivum (in words) ([6]; any concentration of 1 μM, 10 μM or 100 μM): not observed; inhibition of germination of Botrytis cinerea (in words) (Botrytis cinerea [8]; [9]): completely inhibited; also recorded: could inhibit germination
2 | ILLSLEIFERKFSRSVWYYGFPAFSERTRKFWRIWKGKTS [TsORF18-40aa] | 1.9 | 25.8% | −5.8% | 2.2 | 3 and 0 | −7.7% | 2.8 | 0 | 0 | 3 | Δ | ∘ | ∘ | 2.2 | −18.1% | 0 | 0 | 3 | not observed | lesion of Colletotrichum destructivum (in words) ([6]; concentration of 10 μM or 100 μM): not observed
3 | B1 | 2.6 | – | 6.5% | 2.0 | 0 | −0.9% | 2.6 | 0 | 0 | 1 | – | – | – | 1.9 | – | 0 | 0 | 0 | not observed | Inhibitory rate Pseudomonas syringae pv. tomato [1]: −3.1%; Inhibitory rate Erwinia carotovora subsp. cartovora [7]: −3.7%
